# Data reported in patent publication US11123337B2, “4-methylsulfonyl-substituted piperidine urea compounds” (MYOKARDIA, INC., priority 2015, dated 2021).
# Target: bovine cardiac myosin (Bos taurus, UniProt Q9BE39)
# Experiment: Myosin activation assay (PK/LDH-coupled ATPase, bovine cardiac myofibrils)
# Format: biochemical
# Details: AC20 = concentration at which total response is increased by twenty percent
# Outline: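 Values are the concentrations raising the ATPase rate by 20% or 50% over DMSO, from 10-point dose responses fitted with four parameters. Rate is NADH loss at 340 nm via PK/LDH coupling, read 15 min at room temperature, in pH 6.8 PIPES with 50 μM ATP. Bovine cardiac myofibrils were held at pCa ~6 or pCa 10.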
# bovine cardiac myosin, sequence (Q9BE39 whole entry): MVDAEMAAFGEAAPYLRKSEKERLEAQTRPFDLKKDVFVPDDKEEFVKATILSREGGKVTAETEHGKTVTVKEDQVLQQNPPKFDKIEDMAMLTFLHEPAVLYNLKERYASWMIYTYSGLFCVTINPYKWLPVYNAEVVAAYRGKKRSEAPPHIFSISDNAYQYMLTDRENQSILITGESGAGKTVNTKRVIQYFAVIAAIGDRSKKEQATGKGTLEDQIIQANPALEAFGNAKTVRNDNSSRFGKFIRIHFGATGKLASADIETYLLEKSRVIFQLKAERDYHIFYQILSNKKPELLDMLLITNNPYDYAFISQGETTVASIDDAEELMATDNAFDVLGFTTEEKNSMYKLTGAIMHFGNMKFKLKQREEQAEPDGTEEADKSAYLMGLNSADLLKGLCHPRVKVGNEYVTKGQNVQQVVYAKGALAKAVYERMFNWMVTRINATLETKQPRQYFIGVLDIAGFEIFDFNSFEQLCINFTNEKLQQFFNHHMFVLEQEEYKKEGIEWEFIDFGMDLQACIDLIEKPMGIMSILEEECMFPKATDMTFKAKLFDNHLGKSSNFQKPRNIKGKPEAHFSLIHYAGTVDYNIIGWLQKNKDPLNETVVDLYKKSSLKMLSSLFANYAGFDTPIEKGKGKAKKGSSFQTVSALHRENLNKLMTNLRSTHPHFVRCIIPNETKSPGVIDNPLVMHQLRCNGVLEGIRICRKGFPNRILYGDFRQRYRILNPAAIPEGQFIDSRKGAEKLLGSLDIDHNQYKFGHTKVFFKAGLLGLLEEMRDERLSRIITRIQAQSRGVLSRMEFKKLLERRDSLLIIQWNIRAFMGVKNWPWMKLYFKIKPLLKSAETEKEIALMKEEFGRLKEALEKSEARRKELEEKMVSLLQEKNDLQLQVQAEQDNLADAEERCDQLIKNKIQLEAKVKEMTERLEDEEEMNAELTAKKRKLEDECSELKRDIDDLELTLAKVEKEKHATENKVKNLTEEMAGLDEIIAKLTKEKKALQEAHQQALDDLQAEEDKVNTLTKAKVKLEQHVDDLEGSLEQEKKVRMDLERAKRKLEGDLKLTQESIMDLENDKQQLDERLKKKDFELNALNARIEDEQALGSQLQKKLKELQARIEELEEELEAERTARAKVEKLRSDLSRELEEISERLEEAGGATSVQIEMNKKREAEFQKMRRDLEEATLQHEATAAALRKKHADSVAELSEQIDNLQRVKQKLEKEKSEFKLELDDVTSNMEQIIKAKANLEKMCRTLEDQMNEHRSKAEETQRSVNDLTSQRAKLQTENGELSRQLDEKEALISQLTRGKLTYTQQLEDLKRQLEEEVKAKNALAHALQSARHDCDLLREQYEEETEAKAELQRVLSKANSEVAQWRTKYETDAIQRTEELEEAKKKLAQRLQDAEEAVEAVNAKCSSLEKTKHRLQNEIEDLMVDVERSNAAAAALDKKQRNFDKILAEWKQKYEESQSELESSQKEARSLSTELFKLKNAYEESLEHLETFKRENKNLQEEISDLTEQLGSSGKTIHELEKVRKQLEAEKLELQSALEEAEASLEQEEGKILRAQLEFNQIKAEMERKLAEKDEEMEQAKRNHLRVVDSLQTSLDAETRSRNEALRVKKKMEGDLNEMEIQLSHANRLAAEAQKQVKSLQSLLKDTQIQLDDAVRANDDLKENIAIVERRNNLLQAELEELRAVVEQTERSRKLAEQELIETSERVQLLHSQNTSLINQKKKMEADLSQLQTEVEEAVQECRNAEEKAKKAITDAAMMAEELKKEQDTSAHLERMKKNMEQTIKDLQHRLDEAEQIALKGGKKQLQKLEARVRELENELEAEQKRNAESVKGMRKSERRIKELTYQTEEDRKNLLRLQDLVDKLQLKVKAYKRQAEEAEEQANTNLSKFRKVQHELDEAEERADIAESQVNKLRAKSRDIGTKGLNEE
# bovine cardiac myosin, sequence (P85100 whole entry partner): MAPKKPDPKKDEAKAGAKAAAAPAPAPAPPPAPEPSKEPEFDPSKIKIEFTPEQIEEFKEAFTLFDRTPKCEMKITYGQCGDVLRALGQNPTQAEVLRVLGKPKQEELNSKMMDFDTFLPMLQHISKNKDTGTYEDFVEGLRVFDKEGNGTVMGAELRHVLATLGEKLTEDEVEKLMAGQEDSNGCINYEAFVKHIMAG
# bovine cardiac myosin, sequence (Q3SZE5 whole entry partner): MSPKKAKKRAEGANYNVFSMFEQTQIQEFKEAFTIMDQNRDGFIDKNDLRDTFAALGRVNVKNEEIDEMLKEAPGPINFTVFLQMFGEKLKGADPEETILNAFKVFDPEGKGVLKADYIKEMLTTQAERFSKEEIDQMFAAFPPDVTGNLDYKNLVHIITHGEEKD
row,Structure (SMILES),Myosin Activation (AC20)
1,"CC(C)(C1CCN(C(=O)Nc2ccns2)CC1)S(=O)(=O)c1cc(F)cc(F)c1 [Compound 210, 4-(2-((3,5-difluorophenyl)sulfonyl)propan-2-yl)-N-(isothiazol-5-yl)piperidine-1-carboxamide]",+++ (+++ represents myosin activation value AC20 < 2 μM)
2,"CC(F)(C1CCN(C(=O)Nc2ccon2)CC1)S(=O)(=O)c1ccc(C#N)cc1 (stereo not drawn) [Compound 283, 4-(1-((4-cyanophenyl)sulfonyl)-1-fluoroethyl)-N-(isoxazol-3-yl)piperidine-1-carboxamide]",++ (++ represents myosin activation value AC20 from 2 μM-5 μM)
3,"CC(C)(C1CCN(C(=O)Nc2ccnnc2)CC1)S(=O)(=O)c1ccc(C(F)(F)F)cc1 [Compound 181, N-(pyridazin-4-yl)-4-(2-((4-(trifluoromethyl)phenyl)sulfonyl)propan-2-yl)piperidine-1-carboxamide]",++ (++ represents myosin activation value AC20 from 2 μM-5 μM)
4,"CCn1nccc1S(=O)(=O)C(C)(F)C1CCN(C(=O)Nc2ccnnc2)CC1 (stereo not drawn) [Compound 269, 4-(1-((1-ethyl-1H-pyrazol-5-yl)sulfonyl)-1-fluoroethyl)-N-(pyridazin-4-yl)piperidine-1-carboxamide]",++ (++ represents myosin activation value AC20 from 2 μM-5 μM)
5,"CC(C)(C1CCN(C(=O)Nc2cnns2)CC1)S(=O)(=O)c1cccc(F)c1 [Compound 211, 4-(2-((3-fluorophenyl)sulfonyl)propan-2-yl)-N-(1,2,3-thiadiazol-5-yl)piperidine-1-carboxamide]",+++ (+++ represents myosin activation value AC20 < 2 μM)
6,"CC(C)(C1CCN(C(=O)Nc2ccnnc2)CC1)S(=O)(=O)c1ccccc1C(F)(F)F [Compound 195, N-(pyridazin-4-yl)-4-(2-((2-(trifluoromethyl)phenyl)sulfonyl)propan-2-yl)piperidine-1-carboxamide]",++ (++ represents myosin activation value AC20 from 2 μM-5 μM)
7,"O=C(Nc1ccnnc1)N1CCC(C2(S(=O)(=O)c3ccc(C(F)(F)F)cc3)CCC2)CC1 [Compound 165, N-(pyridazin-4-yl)-4-(1-((4-(trifluoromethyl)phenyl)sulfonyl)cyclobutyl)piperidine-1-carboxamide]",+++ (+++ represents myosin activation value AC20 < 2 μM)
8,"Cc1cnccc1S(=O)(=O)C(F)(F)C1CCN(C(=O)Nc2ccnnc2)CC1 [Compound 70, 4-(difluoro((3-methylpyridin-4-yl)sulfonyl)methyl)-N-(pyridazin-4-yl)piperidine-1-carboxamide]",++ (++ represents myosin activation value AC20 from 2 μM-5 μM)
9,"CC(F)(F)C(C)(C1CCN(C(=O)Nc2ccnnc2)CC1)S(=O)(=O)c1cccc(F)c1 (stereo not drawn) [Compound 178, 4-(3,3-difluoro-2-((3-fluorophenyl)sulfonyl)butan-2-yl)-N-(pyridazin-4-yl)piperidine-1-carboxamide]",+++ (+++ represents myosin activation value AC20 < 2 μM)
10,"O=C(Nc1ccnnc1)N1CCC(C(F)(F)S(=O)(=O)c2ccccc2CO)CC1 [Compound 25, 4-(Difluoro((2-(hydroxymethyl)phenyl)sulfonyl)methyl)-N-(pyridazin-4-yl)piperidine-1-carboxamide]",++ (++ represents myosin activation value AC20 from 2 μM-5 μM)
11,"O=C(Nc1cncs1)N1CCC(CS(=O)(=O)c2cccc(F)c2)CC1 [Compound 36, 4-(((3-fluorophenyl)sulfonyl)methyl)-N-(thiazol-5-yl)piperidine-1-carboxamide]",+ (+ represents myosin activation value AC20 > 5 μM)
12,"CC(C)(C)OC(=O)n1cc(NC(=O)N2CCC(C(C)(F)S(=O)(=O)c3cccc(F)c3)CC2)cn1 (stereo not drawn) [Compound 237, tert-butyl 4-(4-(1-fluoro-1-((3-fluorophenyl)sulfonyl)ethyl)piperidine-1-carboxamido)-1H-pyrazole-1-carboxylate]",+ (+ represents myosin activation value AC20 > 5 μM)
13,"Cn1nccc1S(=O)(=O)C(C)(F)C1CCN(C(=O)Nc2ccon2)CC1 (stereo not drawn) [Compound 280, 4-(1-fluoro-1-((1-methyl-1H-pyrazol-5-yl)sulfonyl)ethyl)-N-(isoxazol-3-yl)piperidine-1-carboxamide]",+ (+ represents myosin activation value AC20 > 5 μM)
14,"O=C(Nc1ccncc1)N1CCC(C2(S(=O)(=O)c3cccc(F)c3)CC2)CC1 [Compound 35, 4-(1-((3-fluorophenyl)sulfonyl)cyclopropyl)-N-(pyridin-4-yl)piperidine-1-carboxamide]",+++ (+++ represents myosin activation value AC20 < 2 μM)
15,"Cn1cc(S(=O)(=O)C(C)(F)C2CCN(C(=O)Nc3ccc(F)nc3)CC2)c(C(F)(F)F)n1 (stereo not drawn) [Compound 244, 4-(1-fluoro-1-((1-methyl-3-(trifluoromethyl)-1H-pyrazol-4-yl)sulfonyl)ethyl)-N-(6-fluoropyridin-3-yl)piperidine-1-carboxamide]",+ (+ represents myosin activation value AC20 > 5 μM)
16,"Cn1nc(C(F)F)cc1S(=O)(=O)C(C)(F)C1CCN(C(=O)Nc2ccnnc2)CC1 (stereo not drawn) [Compound 17, 4-(1-((3-(difluoromethyl)-1-methyl-1H-pyrazol-5-yl)sulfonyl)-1-fluoroethyl)-N-(pyridazin-4-yl)piperidine-1-carboxamide]",+++ (+++ represents myosin activation value AC20 < 2 μM)
17,"CC(F)(C1CCN(C(=O)Nc2ccnc(F)c2)CC1)S(=O)(=O)c1cccc(F)c1 (stereo not drawn) [Compound 236, 4-(1-fluoro-1-((3-fluorophenyl)sulfonyl)ethyl)-N-(2-fluoropyridin-4-yl)piperidine-1-carboxamide]",++ (++ represents myosin activation value AC20 from 2 μM-5 μM)
18,"Cn1cc(S(=O)(=O)[C@@](C)(F)C2CCN(C(=O)Nc3cocn3)CC2)c(C(F)F)n1 [Compound 248, (R)-4-(1-((3-(difluoromethyl)-1-methyl-1H-pyrazol-4-yl)sulfonyl)-1-fluoroethyl)-N-(oxazol-4-yl)piperidine-1-carboxamide]",+ (+ represents myosin activation value AC20 > 5 μM)
19,"C[C@@](F)(C1CCN(C(=O)Nc2ccon2)CC1)S(=O)(=O)c1ccc(OC(F)F)nc1 [Compound 311, (S)-4-(1-((6-(difluoromethoxy)pyridin-3-yl)sulfonyl)-1-fluoroethyl)-N-(isoxazol-3-yl)piperidine-1-carboxamide]",+ (+ represents myosin activation value AC20 > 5 μM)
20,"CC(F)(C1CCN(C(=O)Nc2ccc(F)nc2)CC1)S(=O)(=O)c1ccc(C(F)(F)F)cc1 (stereo not drawn) [Compound 242, 4-(1-fluoro-1-((4-(trifluoromethyl)phenyl)sulfonyl)ethyl)-N-(6-fluoropyridin-3-yl)piperidine-1-carboxamide]",++ (++ represents myosin activation value AC20 from 2 μM-5 μM)
21,"Cn1nc(Cl)cc1S(=O)(=O)C(C)(C)C1CCN(C(=O)Nc2ccnc(F)c2)CC1 [Compound 115, 4-(2-((3-chloro-1-methyl-1H-pyrazol-5-yl)sulfonyl)propan-2-yl)-N-(2-fluoropyridin-4-yl)piperidine-1-carboxamide]",++ (++ represents myosin activation value AC20 from 2 μM-5 μM)
